Read-outs that look alike come from different tables or passages of the source.

Our source for the EC50 values is US20150291598A1 (NOVARTIS AG, priority 2012, published 2015).

The subject of the test is P. falciparum (NF54 or 3D7 strain). The test can be described thus: Assay for P. falciparum proliferation in infected human blood cells (SYBR Green). The note with it: NF54 or 3D7 infected human erythrocytes, 72 hours, read-out: EC50 (nM), inhibitory efficacy in delaying P. falciparum proliferation in infected human blood cells. In kind it is cell-based, Plasmodium falciparum. In a few lines: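 NF54 or 3D7 parasites in O+ human erythrocytes at 2.5% hematocrit and 0.3% parasitemia final, exposed to compounds 72 h at 37 °C under 93% N2/4% CO2/3% O2.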

[1] abbreviates: Plasmodium falciparum, Erythrocyte, 72 h.

For the molecule `CN(C(=O)c1cn2c(-c3ccc(-c4ccn[nH]4)cc3)cnc2cn1)c1ccc(F)c(F)c1` [Compound 258, N-(3,4-difluorophenyl)-N-methyl-3-[4-(1H-pyrazol-5-yl)phenyl]imidazo[1,2-a]pyrazine-6-carboxamide], the EC50 under setting [1] is 76 nM.
The same measure, in the same setting: with `CN(C(=O)c1ccc(Cl)cc1)c1cn2c(-c3ccc(C(F)(F)F)cc3)cnc2cn1` [Compound 259, 4-chloro-N-methyl-N-{3-[4-(trifluoromethyl)phenyl]imidazo[1,2-a]pyrazin-6-yl}benzamide] the figure was 414 nM; with `COC(=O)Nc1ccc(-c2cnc3cnc(C(=O)N(C)c4ccc(C#N)cc4)cn23)cn1` [Compound 260, methyl N-(5-{6-[(4-cyanophenyl)(methyl)carbamoyl]imidazo[1,2-a]pyrazin-3-yl}pyridin-2-yl)carbamate], 399 nM; with `CC(C)OC(=O)Nc1ccc(-c2cnc3cnc(C(=O)N(C)c4ccc(C#N)cc4)cn23)cc1` [Compound 261, Propan-2-yl N-(4-{6-[(4-cyanophenyl)(methyl)carbamoyl]imidazo[1,2-a]pyrazin-3-yl}phenyl)carbamate], 408 nM.
For `CNc1nnc(-c2ccc(-c3cnc4cnc(C(=O)N(C)c5ccc(Cl)nc5)cn34)cc2)s1` [Compound 262, N-(6-chloropyridin-3-yl)-N-methyl-3-{4-[5-(methylamino)-1,3,4-thiadiazol-2-yl]phenyl}imidazo[1,2-a]pyrazine-6-carboxamide], the EC50 under setting [1] was 97 nM.
The same measure, in the same setting: in the case of `Cc1ccc(N(C)Cc2cn3c(-c4ccc(C(F)(F)F)cc4)cnc3cn2)cc1` [Compound 263, N,4-dimethyl-N-({3-[4-(trifluoromethyl)phenyl]imidazo[1,2-a]pyrazin-6-yl}methyl)aniline] it was 436 nM.
Consider `CN(C(=O)c1ccc(Cl)cn1)c1cn2c(-c3ccc(C(F)(F)F)cc3)cnc2cn1` [Compound 264, 5-chloro-N-methyl-N-{3-[4-(trifluoromethyl)phenyl]imidazo[1,2-a]pyrazin-6-yl}pyridine-2-carboxamide], for which, under setting [1], the EC50 was found to be 277 nM.
Turning to `CN(C(=O)c1cn2c(-c3ccc(C(F)F)cc3)cnc2cn1)c1ccc(Cl)nc1` [Compound 265, N-(6-chloropyridin-3-yl)-3-[4-(difluoromethyl)phenyl]-N-methylimidazo[1,2-a]pyrazine-6-carboxamide], the EC50 under setting [1] was found to be 318 nM.
As for `CC(C)[C@H](N)C(=O)Nc1ccc(-c2cnc3cnc(C(=O)N(C)c4ccc(C#N)cc4)cn23)cc1` [Compound 266, 3-{4-[(2S)-2-amino-3-methylbutanamido]phenyl}-N-(4-cyanophenyl)-N-methylimidazo[1,2-a]pyrazine-6-carboxamide], the EC50 under setting [1] came out at 234 nM.
For the molecule `CN(C(=O)c1ccc(Cl)nc1)c1cn2c(-c3ccc(C(F)(F)F)cc3)cnc2cn1` [Compound 267, 6-chloro-N-methyl-N-{3-[4-(trifluoromethyl)phenyl]imidazo[1,2-a]pyrazin-6-yl}pyridine-3-carboxamide], the EC50 under setting [1] is 424 nM.
As to `CN(C(=O)c1ccc(F)cc1)c1cn2c(-c3ccc(C(F)(F)F)cc3)cnc2cn1` [Compound 268, 4-fluoro-N-methyl-N-{3-[4-(trifluoromethyl)phenyl]imidazo[1,2-a]pyrazin-6-yl}benzamide], under setting [1], the EC50 worked out at 112 nM.
`C[C@@H](N)CC(=O)Nc1ccc(-c2cnc3cnc(C(=O)N(C)c4ccc(C#N)cc4)cn23)cc1` [Compound 269, 3-{4-[(3R)-3-aminobutanamido]phenyl}-N-(4-cyanophenyl)-N-methylimidazo[1,2-a]pyrazine-6-carboxamide]: the EC50 under setting [1] was determined as 651 nM.
Take `CN(C(=O)c1cn2c(-c3ccc(NC(=O)C(N)C4CCC4)cc3)cnc2cn1)c1ccc(C#N)cc1` (stereo not shown) [Compound 270, 3-[4-(2-amino-2-cyclobutylacetamido)phenyl]-N-(4-cyanophenyl)-N-methylimidazo[1,2-a]pyrazine-6-carboxamide]: under setting [1], the EC50 is 605 nM.
Still for that read-out and setting: with `CN(C(=O)c1cn2c(-c3ccc(N)nc3)cnc2cn1)c1ccc(C#N)cc1` [Compound 272, 3-(6-aminopyridin-3-yl)-N-(4-cyanophenyl)-N-methylimidazo[1,2-a]pyrazine-6-carboxamide] the figure was 295 nM.
`CN(C(=O)c1cn2c(-c3ccc(OCC#N)cc3)cnc2cn1)c1ccc(C#N)cc1` [Compound 273, 3-[4-(cyanomethoxy)phenyl]-N-(4-cyanophenyl)-N-methylimidazo[1,2-a]pyrazine-6-carboxamide]: the EC50 under setting [1] was 186 nM.
Still for that read-out and setting: with `N#Cc1ccc2c(c1)CCCN2C(=O)c1cn2c(-c3ccc(C(F)(F)F)cc3)cnc2cn1` [Compound 274, 1-({3-[4-(trifluoromethyl)phenyl]imidazo[1,2-a]pyrazin-6-yl}carbonyl)-1,2,3,4-tetrahydroquinoline-6-carbonitrile] the figure was 224 nM; with `CN(C(=O)c1cn2c(-c3ccc(C(F)(F)F)cc3F)cnc2cn1)c1ccc(Cl)nc1` [Compound 275, N-(6-chloropyridin-3-yl)-3-[2-fluoro-4-(trifluoromethyl)phenyl]-N-methylimidazo[1,2-a]pyrazine-6-carboxamide], 468 nM.
As for `CN(C(=O)c1ccc(C(F)(F)F)cc1)c1cn2c(-c3ccc(C(F)(F)F)cc3)cnc2cn1` [Compound 276, N-methyl-4-(trifluoromethyl)-N-{3-[4-(trifluoromethyl)phenyl]imidazo[1,2-a]pyrazin-6-yl}benzamide], under setting [1], the EC50 came to 310 nM.
Consider `Cc1ccc(N(C)C(=O)c2cn3c(-c4ccc(C(F)(F)F)cc4)cnc3cn2)cn1` [Compound 277, N-methyl-N-(6-methylpyridin-3-yl)-3-[4-(trifluoromethyl)phenyl]imidazo[1,2-a]pyrazine-6-carboxamide], for which the EC50 under setting [1] was found to be 1130 nM.
For `CN(C(=O)c1cn2c(-c3ccc(NCC(C)(C)N)cc3)cnc2cn1)c1ccc(C#N)cc1` [Compound 278, 3-{4-[(2-amino-2-methylpropyl)amino]phenyl}-N-(4-cyanophenyl)-N-methylimidazo[1,2-a]pyrazine-6-carboxamide], under setting [1], the EC50 is 784 nM.
With `CC(=O)Nc1ccc(-c2cnc3cnc(C(=O)N(C)c4ccc(Cl)nc4)cn23)cc1` [Compound 279, N-(6-chloropyridin-3-yl)-3-(4-acetamidophenyl)-N-methylimidazo[1,2-a]pyrazine-6-carboxamide], the EC50 under setting [1] worked out at 454 nM.
For the molecule `COc1ccc(-c2cnc3cnc(C(=O)N(C)c4ccc(Cl)nc4)cn23)c(F)c1` [Compound 280, N-(6-chloropyridin-3-yl)-3-(2-fluoro-4-methoxyphenyl)-N-methylimidazo[1,2-a]pyrazine-6-carboxamide], under setting [1], the EC50 amounted to 707 nM.
Consider `C[C@@H](N)C(=O)Nc1ccc(-c2cnc3cnc(C(=O)N(C)c4ccc(C#N)cc4)cn23)cc1` [Compound 282, 3-{4-[(2R)-2-aminopropanamido]phenyl}-N-(4-cyanophenyl)-N-methylimidazo[1,2-a]pyrazine-6-carboxamide], for which the EC50 worked out at 252 nM.
As for `CN(C(=O)c1ccc(C#N)cc1)c1cn2c(-c3ccc(C(F)(F)F)cc3)cnc2cn1` [Compound 283, 4-cyano-N-methyl-N-{3-[4-(trifluoromethyl)phenyl]imidazo[1,2-a]pyrazin-6-yl}benzamide], under setting [1], the EC50 was found to be 178 nM.
Regarding `CN(C)CCOc1ccc(-c2cnc3cnc(C(=O)N(C)c4ccc(C#N)cc4)cn23)cc1` [Compound 284, N-(4-cyanophenyl)-3-{4-[2-(dimethylamino)ethoxy]phenyl}-N-methylimidazo[1,2-a]pyrazine-6-carboxamide], the EC50 under setting [1] amounted to 947 nM.
